For assay [1], the system named is nuclear symmetric Arginine dimethylation in A549 cells. The assay is described as follows: PD assay (assay 2): inhibition of nuclear symmetric Arginine dimethylation (SYM10 immunostaining) in A549 cells. Type of assay: cell-based. Conditions: Homo sapiens, 48 h incubation, SYM10 antibody, averaged values, read-out: pIC50 Assay 2 (converted). Here is the method: Experimental Procedure PD Assay (Assay 2)
A549 cells (ATCC, Cat #CCL-185) were cultured in Dulbecco's Modified Eagle's Medium (DMEM) (Sigma, Cat #D5796), supplemented with 10% Fetal Calf Serum (FCS) (HyClone™, Cat #SV30160.03), 100 mM Sodium Pyruvate (Sigma, Cat #S8636), 200 mM L-Glutamine (Sigma, Cat #G7513) and 50 mg/mL Gentamycing (Gibco, Cat #15750-037).
Reagents used for buffers were purchased: Dulbecco's phosphate buffered saline (DPBS) without Ca/Mg (Sigma, Cat #D8537), phosphate buffered saline (PBS) 10× (Roche, Cat #11 666 789 001), Formalin solution 10% (Sigma, HT50-1-128-4L), Methanol 100% (Sigma, Cat #32213-2.5L), Triton X-100 (Acros, Cat #215680010), Bovine Serum Albumin (BSA) (Sigma, Cat #A2153), Alexa fluor 488 goat anti-rabbit antibody (Life Technologies, Cat #A11034), HCS CellMask Deep Red Stain (Life Technologies, Cat #H32721), Hoechst Stain (Life Technologies, Cat #33258), Anti-dimethyl-Arginine, sym (SYM10) antibody (Millipore, 07-412).
Cells were plated at 400 cells/40 μL/well in 384 well black μplates clear bottom (Perkin Elmer) and overnight incubated at 37° C., 5% CO2. The IC50 Studies were performed using nine point dosing series ranging from 10 μM to […] for each compound. 80 nL of the respective dilution of the compounds was added using the Labcyte POD 810 (Labcyte) reaching a final DMSO concentration of 0.2% in cell culture. After an incubation period of 48 h at 37° C. and 5% CO2, cells were fixed in 10% formalin solution for 15 min at room temperature and 20 min in ice-cold methanol, after which they were washed 3× in DPBS. Subsequently, the cells were blocked for 1 h in blocking buffer (PBS+1% BSA and 0.5% Triton X-100) and incubated overnight at 4° C. with the SYM10 antibody diluted 1/2000 in blocking buffer. The cells were washed 3× with washing buffer (PBS+0.1% Triton X-100) and incubated with the Alexa fluor 488 goat anti-rabbit antibody diluted 1/200 in blocking buffer for 1 h at room temperature. Subsequently, they were washed 3× with washing buffer and incubated for 30 min at room temperature with PBS containing a 1/5000 dilution of Hoechst Stain and a 1/5000 dilution of the HCS CellMask Deep Red Stain. After a final wash with PBS, the plates were imaged using the 10×W lens of the Opera® system (Perkin Elmer Life Sciences) using following settings (values in nm):
Low control: minimum level of symmetrically dimethylated Arginines (cells treated with reference compound at 10 μM).
High control: maximum level of symmetrically dimethylated Arginines (DMSO treated cells).
IC50 and pIC50 (−log IC50) values were calculated using the appropriate software.
The pIC50 values in the Table below are averaged values (Co. No. means compound number; n.d. means not determined).

The target of assay [2] is T1, PRMT5-MEP50 enzyme (Homo sapiens, UniProt O14744).
T1 construct: One virus expresses full length human PRMT5 with Flag-tag at N-terminus; Flag (N); purchased Charles River (Argenta); host or cells: insect cells (Sf9), baculovirus co-infection
T1 sequence (O14744 whole entry): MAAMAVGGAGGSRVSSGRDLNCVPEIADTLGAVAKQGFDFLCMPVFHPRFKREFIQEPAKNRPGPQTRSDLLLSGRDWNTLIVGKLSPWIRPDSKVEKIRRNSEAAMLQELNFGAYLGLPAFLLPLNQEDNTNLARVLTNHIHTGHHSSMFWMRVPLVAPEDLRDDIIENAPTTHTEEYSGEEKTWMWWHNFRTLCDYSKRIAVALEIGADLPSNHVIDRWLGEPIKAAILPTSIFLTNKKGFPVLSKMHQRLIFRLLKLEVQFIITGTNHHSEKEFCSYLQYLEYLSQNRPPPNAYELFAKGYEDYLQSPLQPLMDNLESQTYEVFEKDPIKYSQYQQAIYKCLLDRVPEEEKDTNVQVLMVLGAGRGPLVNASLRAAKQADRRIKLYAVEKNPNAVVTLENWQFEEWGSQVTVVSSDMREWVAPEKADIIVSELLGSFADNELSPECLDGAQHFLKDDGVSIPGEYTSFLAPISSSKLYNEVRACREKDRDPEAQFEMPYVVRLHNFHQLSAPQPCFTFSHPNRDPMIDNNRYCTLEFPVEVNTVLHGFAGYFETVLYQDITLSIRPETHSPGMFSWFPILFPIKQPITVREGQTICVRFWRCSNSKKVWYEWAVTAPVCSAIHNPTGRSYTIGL
T1 sequence (Q9BQA1 whole entry partner): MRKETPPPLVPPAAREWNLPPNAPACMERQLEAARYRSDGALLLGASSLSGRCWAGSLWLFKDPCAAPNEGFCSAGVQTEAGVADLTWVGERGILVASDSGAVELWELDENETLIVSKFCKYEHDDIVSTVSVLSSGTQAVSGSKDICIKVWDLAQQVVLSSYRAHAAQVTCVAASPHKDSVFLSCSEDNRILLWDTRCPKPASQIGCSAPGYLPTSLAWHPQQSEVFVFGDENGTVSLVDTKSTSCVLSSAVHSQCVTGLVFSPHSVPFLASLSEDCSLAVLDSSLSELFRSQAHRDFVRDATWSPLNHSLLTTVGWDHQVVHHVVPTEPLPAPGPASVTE
Put plainly: In vitro assay 1a: PRMT5-MEP50 high throughput mass spectrometer assay (SAH formation), 10 nM enzyme. Type of assay: biochemical. The following applies: 1 μM SAM, 0.3 μM H2A, 30° C., 60 min, averaged values, read-out: pIC50 Assay 1a (converted). The text has this: (§1) Experimental Procedures In Vitro Assay (Assay 1a and 1b)
(§2) PRMT5-MEP50 enzyme was purchased from Charles River (Argenta). The enzyme complex was produced in insect cells (Sf9) infected simultaneously with two baculoviruses. One virus expresses full length human PRMT5 with Flag-tag at N-terminus, the second virus expresses full length MEP50 with His6-TEV cleavage at N-terminus. The protein was affinity purified using anti-Flag (M2) beads eluted with 3×FLAG peptide, followed by His-Select eluted with 0.5M imidazole. Eluted protein was then dialysed against tris-buffered saline (TBS) (pH 8.0) containing 20% glycerol and 3 mM dithiothreitol (DTT).
(§3) Full-length untagged human recombinant histone H2A (residues 1-130, Genbank Accession #NM_021052, MW=14.1 kDa) expressed in E. coli was purchased from Reaction Biology Corporation, Cat #HMT-11-146. Reagents used for making reaction buffer or stopping reaction were purchased including Tris base (Sigma Cat #T-1503), NaCl (Sigma Cat #RGF-3270), MgCl2 (Sigma Cat #M0250), DTT (Invitrogen Cat #15508-013) and Formic Acid (Riedel deHaen, Cat #33015)
(§4) PRMT5 catalyzes the sequential methylations of the terminal nitrogen atoms on the guanidine groups of arginine residues within proteins using co-substrate S-adenosyl-L-methionine (AdoMet, SAM), forming mono-methyl (MMA), syrmmetric-dimethyl arginine (sDMA) and S-adenosyl-L-homocysteine (AdoHcy, SAH). The enzyme activity was determined by following the product SAH formation using high throughput mass spectrometry (Agilent Rapidfire 300 System coupled to a Sciex 4000 series QTrap® triple-quad MS/MS). The reaction buffer was 20 mM Tris-HCl, pH 8.5, 50 mM NaCl, 5 mM MgCl2 and 1 mM DTT. The reaction activity was stopped using 1% formic acid (final concentration).
(§5) The IC50 Studies were performed using eleven point dosing series made for each compound by serially diluted 1:2 in dimethyl sulfoxide (DMSO), with point 12 being a DMSO control. Compounds were first spotted to plates, and followed by addition of 2 μM SAM and 0.6 μM H2A (histone H2A) solution mixture. The same volume of enzyme solution was added to initiate the enzymatic reactions. The final concentrations of the reaction are at 1 μM SAM, 0.3 μM H2A and 10 nM enzyme (assay 1a) or or 1.25 nM enzyme (assay 1b). The reaction was incubated at 30° C. for 60 minutes (min) when 10 nM enzyme was used and for 120 min when 1.25 nM enzyme was used. Subsequently, the reaction was quenched by addition of formic acid to a final concentration of 1%. The inhibitions of SAH formation in the presence of compounds were calculated as a percentage of the control relative to the uninhibited reaction as a function of inhibitor concentration. The data were fit as follows: Y=Bottom+(Top−Bottom)/(1+10^((log IC50−X)*h))
(§6) where IC50 is the inhibitor concentration (same unit as X) at 50% inhibition and h is the Hill slope. Y is percent of inhibition, X is log of compound concentration. Bottom and Top are the plateaus in same units as Y.

Assay [3] deals with T1, PRMT5-MEP50 enzyme. Put plainly: In vitro assay 1b: PRMT5-MEP50 high throughput mass spectrometer assay (SAH formation), 1.25 nM enzyme. Type of assay: biochemical. The following applies: for IC50: 1.25 nM enzyme, 1 μM SAM, 0.3 μM H2A, 30° C., 120 min, averaged values, read-out: pIC50 Assay 1b (converted).
Excerpt: as §1, §2, §3, §4, §5, §6

The subject of assay [4] is MCL xenograft models. Conditions: multiple MCL xenograft models; cited from earlier work.
The target of assay [5] is PRMT5 (Homo sapiens, UniProt O14744). Conditions: background statement; cited from earlier work.
Chain of PRMT5 (O14744 whole entry, species assumed): as the sequence (O14744 whole entry) above
Chain of PRMT5 (Q9BQA1 whole entry partner, species assumed): as the sequence (Q9BQA1 whole entry partner) above

Structures are written as SMILES. pIC50: −log10 of the molar value.

Regarding `Cc1cnc2cc(CC[C@H]3C[C@@H](n4ccc5c(N)ncnc54)[C@H](O)[C@@H]3O)ccn12` [Compound 1], the IC50 in assay [1] was 1.26 nM; in assay [2] it was 0.794 nM.
Consider `Cc1cnc2cc(CC[C@H]3C[C@@H](n4ccc5c(N)ncnc54)[C@H](O)[C@@H]3O)c(Cl)cn12` [Compound 2], for which the IC50 in assay [3] is 0.158 nM; in assay [1] it was 6.31 nM.
For the compound `Nc1ncnc2c1ccn2[C@@H]1C[C@H](CCc2ccn3ccnc3c2)[C@@H](O)[C@H]1O` [Compound 3], the IC50 is 20 nM in assay [1] and 2 nM in assay [2].
The corresponding values for `Cn1cnc2cc(CC[C@H]3C[C@@H](n4ccc5c(N)ncnc54)[C@H](O)[C@@H]3O)ccc21` [Compound 4] are 31.6 nM and 12.6 nM.
Take `Nc1nc2cc(CC[C@H]3C[C@@H](n4ccc5c(Cl)ncnc54)[C@H](O)[C@@H]3O)ccc2s1` [Compound 5]: the figures for the IC50 in assay [1] and in assay [2] were 3980 nM and 12.6 nM, respectively.
Taken in the same sequence, the figures for `Nc1nc2cc(CC[C@H]3C[C@@H](n4ccc5c(N)ncnc54)[C@H](O)[C@@H]3O)ccc2s1` [Compound 6] were 15.8 nM and 2 nM.
The corresponding values for `CNc1nc2cc(CC[C@H]3C[C@@H](n4ccc5c(N)ncnc54)[C@H](O)[C@@H]3O)ccc2s1` [Compound 7] are 25.1 nM and 6.31 nM.
`Nc1ncnc2c1ccn2[C@@H]1C[C@H](CCc2ccn3c(C4CC4)cnc3c2)[C@@H](O)[C@H]1O` [Compound 8]: the IC50 was 2.51 nM in assay [3] and 25.1 nM in assay [1].
Taken in the same sequence, the figures for `CNc1ncnc2c1ccn2[C@@H]1C[C@H](CCc2ccn3c(C)cnc3c2)[C@@H](O)[C@H]1O` [Compound 9] were 3.98 nM and 63.1 nM.
The corresponding values for `COc1ncnc2c1ccn2[C@@H]1C[C@H](CCc2ccn3c(C)cnc3c2)[C@@H](O)[C@H]1O` [Compound 10] are 10 nM and 200 nM.
In general, pIC50 refers to −log10 of the IC50, conventionally taken in molar units. High values mean a small IC50, low ones a large IC50. In the case of `Cc1nc2cc(CC[C@H]3C[C@@H](n4ccc5c(N)ncnc54)[C@H](O)[C@@H]3O)ccn2c1C` [Compound 11], in assay [3], the pIC50 was over 9.70. Besides, in assay [1], the IC50 is 3.98 nM.
As to `Cc1cnc2cc(CC[C@H]3C[C@@H](n4ccc5c(N)ncnc54)[C@H](O)[C@@H]3O)c(F)cn12` [Compound 12], the IC50 in assay [3] is 0.316 nM; in assay [1], 2 nM.
In the case of `Nc1ncnc2c1ccn2[C@@H]1C[C@H](CCc2ccn3c(Cl)cnc3c2)[C@@H](O)[C@H]1O` [Compound 13], the IC50 in assay [3] is 1.26 nM; in assay [1] it was 20 nM; in assay [2] it was 2 nM.
The corresponding values for `Nc1ncnc2c1ccn2[C@@H]1C[C@H](CCc2ccn3c(Br)cnc3c2)[C@@H](O)[C@H]1O` [Compound 14] are 1.58 nM, 12.6 nM and 1.26 nM.
Take `Cc1cnc2cc(CC[C@H]3C[C@@H](n4cc(Br)c5c(N)ncnc54)[C@H](O)[C@@H]3O)ccn12` [Compound 15]: the values for the IC50 in assay [3] and in assay [1] were 1 nM and 6.31 nM, respectively.
Regarding `Nc1ncnc2c1ccn2[C@@H]1C[C@H](CCc2cc3ncccc3[nH]2)[C@@H](O)[C@H]1O` [Compound 17], the IC50 in assay [1] is 1000 nM; in assay [2], 39.8 nM.
Taken in the same sequence, the figures for `Nc1ncnc2c1ccn2[C@@H]1C[C@H](CCc2cc3ncccc3s2)[C@@H](O)[C@H]1O` [Compound 18] were 126 nM and 39.8 nM.
Taken in the same sequence, the figures for `Nc1ncnc2c1ccn2[C@@H]1C[C@H](CCc2cc3ncccc3o2)[C@@H](O)[C@H]1O` [Compound 19] were 5010 nM and 1260 nM.
With `Cc1cnc2c(Cl)c(CC[C@H]3C[C@@H](n4ccc5c(N)ncnc54)[C@H](O)[C@@H]3O)ccn12` [Compound 21], the figures for the IC50 in assay [3] and in assay [1] were 3.98 nM and 15.8 nM, respectively.
In the case of `Nc1ncnc2c1ccn2[C@@H]1C[C@H](COc2ccn3ccnc3c2)[C@@H](O)[C@H]1O` [Compound 24], the IC50 in assay [1] was 1580 nM; in assay [2], 31.6 nM.
In the case of `Cn1cnc2cc(OC[C@H]3C[C@@H](n4ccc5c(N)ncnc54)[C@H](O)[C@@H]3O)ccc21` [Compound 25], the IC50 is 2000 nM in assay [1] and 126 nM in assay [2].
Compound `Nc1ccc(CC[C@H]2C[C@@H](n3ccc4c(N)ncnc43)[C@H](O)[C@@H]2O)cn1` [Compound 27] had a pIC50 in assay [3] of 8.30. For the same compound, the IC50 in assay [1] was 6.31 nM.
Turning to `Nc1cccc(CC[C@H]2C[C@@H](n3ccc4c(N)ncnc43)[C@H](O)[C@@H]2O)n1` [Compound 28], the IC50 in assay [3] is 158 nM; in assay [1] it was 631 nM.
For `Nc1cc(CC[C@H]2C[C@@H](n3ccc4c(N)ncnc43)[C@H](O)[C@@H]2O)ccn1` [Compound 29], the figures for the IC50 in assay [3] and in assay [1] were 398 nM and 2000 nM, respectively.
`Nc1ccc(/C=C/[C@H]2C[C@@H](n3ccc4c(N)ncnc43)[C@H](O)[C@@H]2O)cn1` [Compound 30]: the IC50 in assay [3] was 63.1 nM; in assay [1] it was 501 nM.
As for `O=C(NC[C@H](O)CN1CCc2ccccc2C1)c1cc(NC2COC2)ncn1` [EPZ015666], the anti-tumour activity entry in assay [4] is reported as “anti-tumour activity in multiple MCL xenograft models”. Moreover, the PRMT5 inhibitor potency entry in assay [5] is “sub-nanomolar potent”.

The values are drawn from patent US11098062B2, “Monocyclic and bicyclic ring system substituted carbanucleoside analogues for use as PRMT5 inhibitors” (Janssen Pharmaceutica NV, priority 2016, dated 2021).
